The term Ki denotes the dissociation constant of the complex between target and ligand, obtained from inhibition or displacement. Low readings indicate higher affinity, high ones lower affinity.

This note sets out measurements from US12336991B2, “Factor XIIA inhibitors” (UNIVERSITY OF LEEDS, priority 2018, dated 2025).

Structures are written as SMILES.

Format in all cases: biochemical
One test concerns the target FXa (Homo sapiens, UniProt P00742). Briefly: Determination of selectivity: FXa inhibition, chromogenic substrate S2765 assay. The settings on record: fold selectivity for FXIIa over FXa. An outline of the steps:
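Human FXa (5 nM) preincubated with compound (top 500 μM, 5% DMSO) 10 min at 37 °C in 50 mM Tris, 137 mM NaCl pH 7.4, then S2765 ([…]) added; A405 kinetics over 3 h at 37 °C. IC50 from initial rates, converted to Ki via Cheng-Prusoff.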

The next test addresses T1, FXIIa (Homo sapiens, UniProt P00748).
T1 sequence (P00748 373-615 limits assumed): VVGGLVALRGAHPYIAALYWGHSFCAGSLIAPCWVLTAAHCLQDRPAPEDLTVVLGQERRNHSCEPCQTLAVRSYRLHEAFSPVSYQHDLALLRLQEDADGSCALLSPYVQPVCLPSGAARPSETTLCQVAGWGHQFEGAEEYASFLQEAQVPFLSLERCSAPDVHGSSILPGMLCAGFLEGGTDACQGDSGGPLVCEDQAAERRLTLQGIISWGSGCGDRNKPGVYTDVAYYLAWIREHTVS
T1 sequence (P00748 20-372 partner limits assumed): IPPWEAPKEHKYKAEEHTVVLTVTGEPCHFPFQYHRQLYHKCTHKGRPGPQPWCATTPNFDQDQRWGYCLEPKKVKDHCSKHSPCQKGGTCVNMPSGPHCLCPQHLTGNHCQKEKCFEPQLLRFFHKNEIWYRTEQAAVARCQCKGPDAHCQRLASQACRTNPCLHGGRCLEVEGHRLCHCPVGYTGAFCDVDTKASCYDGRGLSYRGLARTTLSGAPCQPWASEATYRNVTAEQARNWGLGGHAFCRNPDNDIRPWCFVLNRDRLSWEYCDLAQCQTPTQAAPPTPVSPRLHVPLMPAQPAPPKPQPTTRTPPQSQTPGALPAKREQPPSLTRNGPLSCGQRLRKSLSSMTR
Briefly: Determination of Factor XIIa inhibition, chromogenic substrate S-2302 assay. The settings on record: human FXIIa alpha. An outline of the steps:
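FXIIa (10 nM) preincubated with compound 10 min at 37° C. in 50 mM Tris, 137 mM NaCl pH 7.4, 5% DMSO, top concentration 500 μM, then S-2302 added ([…]). Absorbance at 405 nm read kinetically for 3 h; IC50 from initial rates, converted to Ki by Cheng-Prusoff.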

A further test addresses T2, thrombin (Homo sapiens, UniProt P00734).
T2 construct: FXa (5 nM) and thrombin (5 nM)
Put plainly: Determination of selectivity: thrombin inhibition, chromogenic substrate GPR assay. The settings on record: fold selectivity for FXIIa over thrombin. In a few lines:
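Thrombin (5 nM) preincubated with compound 10 min at 37 °C in 50 mM Tris, 137 mM NaCl, pH 7.4, 5% DMSO, then GPR substrate ([…]) added. Absorbance at 405 nm read kinetically for 3 h; IC50 from initial rates, converted to Ki via Ki=IC50/(1+[S]/Km).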

Sequence of FXa (P00742 235-488 limits assumed): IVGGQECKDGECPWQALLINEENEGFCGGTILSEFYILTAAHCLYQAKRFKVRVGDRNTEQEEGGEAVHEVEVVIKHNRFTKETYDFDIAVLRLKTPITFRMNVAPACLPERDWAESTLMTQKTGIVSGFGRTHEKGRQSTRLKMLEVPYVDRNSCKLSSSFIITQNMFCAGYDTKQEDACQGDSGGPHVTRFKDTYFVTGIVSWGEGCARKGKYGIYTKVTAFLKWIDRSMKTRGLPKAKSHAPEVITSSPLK
Sequence of FXa (P00742 41-179 partner limits assumed): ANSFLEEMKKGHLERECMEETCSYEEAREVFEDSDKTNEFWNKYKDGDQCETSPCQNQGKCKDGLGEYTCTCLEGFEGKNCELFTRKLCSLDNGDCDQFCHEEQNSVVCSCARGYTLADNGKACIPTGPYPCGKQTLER

In the case of `COc1ccc(C[C@@H]2C[C@@H](C(=O)NCc3ccc4c(c3)nnn4C)N(C(=O)[C@H](N)CCC(=O)N3CCNCC3)C2)cc1` [Example M05393], the “FXa (human)/FXIIa alpha (human)” value at FXa is recorded as “∘∘∘”. The compound also registered a Ki at FXIIa of 200 to 2000 nM. The “Thrombin (human)/FXIIa alpha (human)” value on thrombin is recorded as “+++ (fold selectivity values greater than 100)”.

As for `COc1ccc(C[C@@H]2C[C@@H](C(=O)NCc3ccc4c(c3)nnn4C)N(C(=O)[C@H](N)CCC(=O)N3CCNC(=O)C3)C2)cc1` [Example M05451], on FXa, the “FXa (human)/FXIIa alpha (human)” value is recorded as “∘∘∘”. The compound also yielded an inhibition constant (Ki) on FXIIa below 200 nM. Further, the “Thrombin (human)/FXIIa alpha (human)” value at thrombin is listed as “+++ (fold selectivity values greater than 100)”.

In the case of `COc1ccc(C[C@@H]2C[C@@H](C(=O)NCc3ccc4c(c3)nnn4C)N(C(=O)[C@H]3C[C@@H](c4ccccc4OC(F)(F)F)CN3)C2)cc1` [Example M05388], the “FXa (human)/FXIIa alpha (human)” value on FXa is listed as “∘∘∘”. On FXIIa, this compound registered a Ki of 200 to 2000 nM. Further, the “Thrombin (human)/FXIIa alpha (human)” value at thrombin is reported as “+++ (fold selectivity values greater than 100)”.

Consider `COc1ccc(C[C@@H]2C[C@@H](C(=O)NCc3ccc4c(c3)nnn4C)N(C(=O)[C@H]3CC(c4ccccc4C)CN3)C2)cc1` (stereo partly drawn) [Example M05365], for which the “FXa (human)/FXIIa alpha (human)” value on FXa is recorded as “∘∘∘”. The same compound yielded a Ki at FXIIa of 200 to 2000 nM. The “Thrombin (human)/FXIIa alpha (human)” value on thrombin was “+++ (fold selectivity values greater than 100)”.

With `Nc1nccc2cc(CNC(=O)[C@@H]3C[C@H](C(F)(F)F)CN3C(=O)[C@H](N)CCC(=O)N3CCCC3)ccc12` [Example M05265], on FXa, the “FXa (human)/FXIIa alpha (human)” value was “∘”. Moreover, the Ki at FXIIa was in the range of 200 to 2000 nM. Besides, the “Thrombin (human)/FXIIa alpha (human)” value at thrombin was “+ (fold selectivity values less than 10)”.

Regarding `CN(C)[C@H](CCC(=O)N1CCCC1)C(=O)N1C[C@H](Cc2cccnc2)C[C@H]1C(=O)NCc1ccc2c(c1)nnn2C` [Example M05222], on FXa, the “FXa (human)/FXIIa alpha (human)” value was “∘∘∘”. This compound also gave a Ki on FXIIa of 200 to 2000 nM. For the same compound, the “Thrombin (human)/FXIIa alpha (human)” value at thrombin was “+++ (fold selectivity values greater than 100)”.

Turning to `Nc1nccc2cc(CNC(=O)[C@@H]3C[C@H](c4ccccc4)CN3C(=O)[C@H](N)CCC(=O)N3CCCC3)ccc12` [Example M05281], on FXa, the “FXa (human)/FXIIa alpha (human)” value is listed as “∘”. Also, at FXIIa, the Ki lay within 200 to 2000 nM. Besides, the “Thrombin (human)/FXIIa alpha (human)” value at thrombin is “++ (fold selectivity value of 10 to 100)”.

On to `CC(=O)N[C@H]1C[C@@H](C(=O)NCc2ccnc(N)c2)N(C(=O)[C@H](N)CCc2ccccc2)C1` [Example M05141], for which the “FXa (human)/FXIIa alpha (human)” value at FXa is “∘”. The Ki at FXIIa is above 2000 nM. Further, the “Thrombin (human)/FXIIa alpha (human)” value on thrombin is reported as “+ (fold selectivity values less than 10)”.

Take `Cc1cccc(CC[C@@H](N)C(=O)N2CCC[C@H]2C(=O)NCc2ccc(CN)cc2)c1` [Example M00762]: on FXa, the “FXa (human)/FXIIa alpha (human)” value is on record as “∘∘”. Moreover, the inhibitory constant (Ki) at FXIIa was above 2000 nM. The “Thrombin (human)/FXIIa alpha (human)” value at thrombin is “+ (fold selectivity values less than 10)”.

For the compound `Cn1nnc2cc(CNC(=O)[C@@H]3C[C@@H](Cc4ccc5c(c4)OCO5)CN3C(=O)[C@H]3C[C@@H](c4ccccc4)CN3)ccc21` [Example M05390], the “FXa (human)/FXIIa alpha (human)” value on FXa is “∘∘∘”. On FXIIa, this compound yielded a Ki of 200 to 2000 nM. On thrombin, the “Thrombin (human)/FXIIa alpha (human)” value is “++ (fold selectivity value of 10 to 100)”.

Turning to `COc1ccc(C[C@@H]2C[C@@H](C(=O)NCc3cc4ccncc4[nH]3)N(C(=O)[C@H](N)CCc3ccccc3)C2)cc1` [Example M00954], the “FXa (human)/FXIIa alpha (human)” value at FXa is on record as “∘∘∘”. For the same compound, on FXIIa, the Ki is below 200 nM. In addition, the “Thrombin (human)/FXIIa alpha (human)” value on thrombin is given as “+ (fold selectivity values less than 10)”.

In the case of `Cn1nnc2cc(CNC(=O)[C@@H]3C[C@H](C(F)(F)F)CN3C(=O)[C@H](N)CCC(=O)N3CCCC3)ccc21` [Example M05139], the “FXa (human)/FXIIa alpha (human)” value at FXa is reported as “∘∘∘”. The compound further showed a Ki on FXIIa above 2000 nM. Moreover, the “Thrombin (human)/FXIIa alpha (human)” value at thrombin was “+++ (fold selectivity values greater than 100)”.
